Results: ChEMBL document CHEMBL5131530, “5-Oxopyrrolidine-3-carboxamides as Nav1.8 Inhibitors for Treating Pain Disorders, Cough Disorders, and Acute and Chronic Itch Disorders” (ACS Med Chem Lett, 2022)

Biological target: Sodium channel protein type 10 subunit alpha (Homo sapiens, UniProt Q9Y5Y9)
Assay: Inhibition of human Nav1.8 channel stably expressed in HEK293 cells assessed as sodium current flow at holding potential of -90mV by whole-cell voltage clamp assay
Format: cell-based

Sodium channel protein type 10 subunit alpha, sequence (Q9Y5Y9 whole entry, looked up): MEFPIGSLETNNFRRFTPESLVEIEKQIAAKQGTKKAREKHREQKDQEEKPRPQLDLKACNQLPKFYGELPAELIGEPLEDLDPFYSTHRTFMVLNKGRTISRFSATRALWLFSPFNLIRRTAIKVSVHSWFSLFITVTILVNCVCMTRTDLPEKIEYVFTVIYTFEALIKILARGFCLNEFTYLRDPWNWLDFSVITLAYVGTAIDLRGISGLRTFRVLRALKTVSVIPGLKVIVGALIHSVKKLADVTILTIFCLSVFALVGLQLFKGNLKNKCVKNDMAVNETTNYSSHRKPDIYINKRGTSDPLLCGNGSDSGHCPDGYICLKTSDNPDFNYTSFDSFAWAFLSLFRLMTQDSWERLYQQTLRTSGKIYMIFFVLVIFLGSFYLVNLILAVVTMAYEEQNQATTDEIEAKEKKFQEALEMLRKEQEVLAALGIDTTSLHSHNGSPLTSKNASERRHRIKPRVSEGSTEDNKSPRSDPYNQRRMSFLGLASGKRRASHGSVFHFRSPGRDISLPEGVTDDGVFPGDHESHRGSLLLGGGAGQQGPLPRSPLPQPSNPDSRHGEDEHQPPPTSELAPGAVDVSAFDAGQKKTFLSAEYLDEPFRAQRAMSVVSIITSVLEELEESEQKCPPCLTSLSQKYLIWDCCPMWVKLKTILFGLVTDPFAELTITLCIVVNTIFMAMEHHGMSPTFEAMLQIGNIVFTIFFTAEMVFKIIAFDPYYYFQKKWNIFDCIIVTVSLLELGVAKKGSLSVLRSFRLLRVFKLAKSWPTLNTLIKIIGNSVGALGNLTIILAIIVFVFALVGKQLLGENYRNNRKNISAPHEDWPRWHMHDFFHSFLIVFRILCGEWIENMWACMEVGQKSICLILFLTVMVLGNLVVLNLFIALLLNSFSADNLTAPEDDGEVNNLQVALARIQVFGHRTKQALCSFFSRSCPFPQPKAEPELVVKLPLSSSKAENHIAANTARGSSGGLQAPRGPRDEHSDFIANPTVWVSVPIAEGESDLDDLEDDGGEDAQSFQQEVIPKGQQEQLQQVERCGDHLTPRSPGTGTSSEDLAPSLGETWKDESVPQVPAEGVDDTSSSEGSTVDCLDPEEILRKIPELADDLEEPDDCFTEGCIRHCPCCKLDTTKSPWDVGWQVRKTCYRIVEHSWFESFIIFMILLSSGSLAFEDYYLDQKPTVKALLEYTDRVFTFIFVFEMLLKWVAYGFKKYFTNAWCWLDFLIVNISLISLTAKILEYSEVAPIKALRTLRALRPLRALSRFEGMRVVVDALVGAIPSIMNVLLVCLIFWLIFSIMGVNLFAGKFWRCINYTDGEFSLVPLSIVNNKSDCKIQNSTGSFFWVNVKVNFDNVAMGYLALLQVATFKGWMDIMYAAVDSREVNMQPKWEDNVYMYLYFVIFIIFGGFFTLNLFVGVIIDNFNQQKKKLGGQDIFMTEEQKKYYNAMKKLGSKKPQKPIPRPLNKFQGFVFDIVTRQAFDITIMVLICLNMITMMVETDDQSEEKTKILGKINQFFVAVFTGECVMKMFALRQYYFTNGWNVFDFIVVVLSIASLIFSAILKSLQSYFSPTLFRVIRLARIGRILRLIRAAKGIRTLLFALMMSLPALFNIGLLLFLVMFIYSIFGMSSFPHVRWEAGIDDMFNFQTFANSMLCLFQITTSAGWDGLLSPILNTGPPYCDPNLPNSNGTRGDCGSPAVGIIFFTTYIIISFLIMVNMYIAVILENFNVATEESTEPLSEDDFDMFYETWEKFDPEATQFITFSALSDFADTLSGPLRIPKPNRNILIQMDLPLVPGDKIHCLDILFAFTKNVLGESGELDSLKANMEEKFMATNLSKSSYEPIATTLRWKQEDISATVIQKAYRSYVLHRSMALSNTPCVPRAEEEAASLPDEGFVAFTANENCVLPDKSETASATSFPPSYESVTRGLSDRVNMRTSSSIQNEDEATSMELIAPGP

Row | Compound | IC50 [nM]
1 | O=C1C[C@H](C(=O)NC(c2ccc(Cl)cc2)c2ccc(Cl)c(C(F)(F)F)c2)CN1 (stereo partly specified) | 1.2
2 | O=C1C[C@H](C(=O)NC(c2ccc(Cl)cc2)c2ccc(OC(F)(F)F)cc2)CN1 (stereo partly specified) | 4.1
3 | O=C1C[C@H](C(=O)NC(c2ccc(F)c(Cl)c2)c2ccc(F)c(C(F)(F)F)n2)CN1 (stereo partly specified) | 2.9
4 | O=C1C[C@H](C(=O)NC(c2ccc(Cl)cc2)c2ccc(F)c(Cl)c2)CN1 (stereo partly specified) | 3.4
5 | O=C1C[C@H](C(=O)NC(c2ccc(Cl)cc2)c2ccc(F)c(C(F)(F)F)c2)CN1 (stereo partly specified) | 2.6
6 | O=C1C[C@H](C(=O)NC(c2cnc(C(F)(F)F)c(Cl)c2)c2ccc(F)c(Cl)c2F)CN1 (stereo partly specified) | 4.2
